This note sets out measurements from patent publication US7335679B2 (Arizona Board of Regents on behalf of the University of …, priority 2001, dated 2008).

The data set deals with C57BL6 mice. Kind of data set: in vivo toxicity in mice, ip daily for 4 days. The following applies: ip daily × 4, MTD = >10% body weight loss. From the text: Highlighted are the compounds being made for antitumor testing.

Consider `COC[C@H]1OC(=O)c2coc3c2[C@@]1(C)C1=C(C3=O)[C@@H]2CCC(=O)[C@@]2(C)C[C@H]1OC(C)=O` [wortmannin, reference compound], for which the “Maximum tolerated dose mg/kg ip qD × 4” value came to 2.5 mg/kg.
